Measurements taken from patent US20250345295A1, “LMK235 COMPOSITIONS AND METHODS” (UNM Rainforest Innovations, priority 2024, published 2025).
“Also recorded” adds a separate entry of the source.

Legend:
[1] = test system: BALBc mice with FRICT-ION nerve injury; test: von Frey mechanical threshold, FRICT-ION trigeminal nerve injury model; assay type: in vivo, mouse; settings: male and female BALBc FRICT-ION mice, 5 mg/kg s.c. daily in week 3, vs vehicle
Excerpt: The FRICT-ION chronic neuropathic pain model combines the chemical irritation of chromic gut suture with some physical compression of the maxillary branch (V2) of the trigeminal nerve. FRICT-ION model was induced in 9-week-old mice anesthetized briefly with isoflurane (2-3%). Intraoral surgical incision was made with a small scalpel puncture at the buccal cheek crease. A piece of chromic gut suture (3 mm length, 4-0) was placed parallel to the infraorbital nerve (ION) and pushed into the tight space to follow the trigeminal nerve as it passes into the foramen rotundum of the skull. The model simulates blunt force traumatic injury to the nerve, residual wound debris, or other irritation. […]
[…] Withdrawal thresholds were determined weekly with von Frey fiber stimulation on the snout. […]
Mechanical and cold sensitivity was modified for face as previously described (Montera M A, Westlund K N, Bio-protocol2020 April 20; 10(8):e3591-e3591; Lyons et al., Neuroscience 2015 Jun. 4; 295:126-138; Ma et al., Mol Brain 2012 Dec. 28; 5:44; Montera et al., Channels (Austin). 2021 December; 15(1):31-37). Briefly, animals were gently restrained and the mechanical threshold for nocifensive head withdrawal was determined using calibrated von Frey filaments (0.008 g-6.0 g) using the Up-Down method (Chaplan et al., J Neurosci Methods 1994 July; 53(1):55-63; FIG. 2). […]

FRICT-ION mice = test: Cold probe (10° C.) sensitivity test, FRICT-ION model; assay type: in vivo, mouse; settings: 5 mg/kg, vs FRICT-ION+vehicle
Excerpt: The FRICT-ION chronic neuropathic pain model combines the chemical irritation of chromic gut suture with some physical compression of the maxillary branch (V2) of the trigeminal nerve. FRICT-ION model was induced in 9-week-old mice anesthetized briefly with isoflurane (2-3%). Intraoral surgical incision was made with a small scalpel puncture at the buccal cheek crease. A piece of chromic gut suture (3 mm length, 4-0) was placed parallel to the infraorbital nerve (ION) and pushed into the tight space to follow the trigeminal nerve as it passes into the foramen rotundum of the skull. The model simulates blunt force traumatic injury to the nerve, residual wound debris, or other irritation.
On the day of FRICT-ION model induction in BALBc mice, LMK235 was administered and treatment was continued for seven days. Withdrawal thresholds were determined weekly with von Frey fiber stimulation on the snout. Cold sensitivity on the snout and anxiety were tested once prior to experiment end in week 8-9.
Mechanical and cold sensitivity was modified for face as previously described (Montera M A, Westlund K N, Bio-protocol2020 April 20; 10(8):e3591-e3591; Lyons et al., Neuroscience 2015 Jun. 4; 295:126-138; Ma et al., Mol Brain 2012 Dec. 28; 5:44; Montera et al., Channels (Austin). 2021 December; 15(1):31-37). […]

[2] = test system: HDAC5 and pain related genes in TG; test: RT-PCR of TG gene expression; assay type: in vivo, mouse
Method: To confirm that the anti-allodynic mechanism provided by LMK235 was accompanied by changes in RNA of specific pain relate genes, TG expression of several genes was assessed in the TG of LMK235-treated and untreated FRICT-ION groups to naïve controls with RT-PCR (FIG. 12).
Primers were ordered from Bio-Rad Laboratories, Inc. (Hercules, CA). Samples were run by UNM Human Tissue Repository Core facility. 400 μg of total RNA was transcribed into cDNA using iScript cDNA synthesis kit (Catalog #1708890, BioRad Laboratories, Inc., Hercules, CA, USA). Relative analysis of HDAC5 by Sybr Green qRT-PCR was run in order to validate the results observed via RNAseq. All primers, housekeeping gene primers, and the amplicon context sequence were purchased pre-validated from Bio-Rad Laboratories, Inc. (PrimePCR SYBR Green Assay: HDAC5, Mouse, qMmuCID0021326; Bio-Rad Laboratories, Inc., Hercules, CA). All qRT-PCR amplification reactions were done in 20 μl volumes in triplicate using iTaq Universal SYBR Green Supermix (Catalog #1725122, Bio-Rad Laboratories, Inc., Hercules, CA) in 96-well plates and run on a LightCycler 96 qRT-PCR system (Roche, Germany). The Amplification program used for amplification was an initial activation step of 95° C. for two minutes followed by 40 cycles at 95° C. for five seconds and 60° C. for 30 seconds, and concluding with a melt curve of 65° C.-95° C. with five seconds/step. qRT-PCR was done on the HDAC5 gene target and two housekeeping genes within each of the treated and untreated controls and experimental conditions. qRT-PCR data were analyzed using the 2-ΔΔcT method (Livak K J, Schmittgen T D, Methods 2001 December;25(4):402-408). Briefly, the mean ΔcT of each differentially expressed gene target assayed for, in both the experimental conditions and the untreated controls was calculated by subtracting the mean cT from the mean cT of the housekeeping genes values for each sample type. ΔΔcT was then calculated by subtracting the experimental ΔcT group from the control Act group. Expression fold change was expressed as 2-ΔΔcT.

HDAC 5 = HDAC 5 (Homo sapiens, UniProt Q9UQL6); settings: cited from earlier work
HDAC 5, sequence (Q9UQL6 whole entry, species assumed): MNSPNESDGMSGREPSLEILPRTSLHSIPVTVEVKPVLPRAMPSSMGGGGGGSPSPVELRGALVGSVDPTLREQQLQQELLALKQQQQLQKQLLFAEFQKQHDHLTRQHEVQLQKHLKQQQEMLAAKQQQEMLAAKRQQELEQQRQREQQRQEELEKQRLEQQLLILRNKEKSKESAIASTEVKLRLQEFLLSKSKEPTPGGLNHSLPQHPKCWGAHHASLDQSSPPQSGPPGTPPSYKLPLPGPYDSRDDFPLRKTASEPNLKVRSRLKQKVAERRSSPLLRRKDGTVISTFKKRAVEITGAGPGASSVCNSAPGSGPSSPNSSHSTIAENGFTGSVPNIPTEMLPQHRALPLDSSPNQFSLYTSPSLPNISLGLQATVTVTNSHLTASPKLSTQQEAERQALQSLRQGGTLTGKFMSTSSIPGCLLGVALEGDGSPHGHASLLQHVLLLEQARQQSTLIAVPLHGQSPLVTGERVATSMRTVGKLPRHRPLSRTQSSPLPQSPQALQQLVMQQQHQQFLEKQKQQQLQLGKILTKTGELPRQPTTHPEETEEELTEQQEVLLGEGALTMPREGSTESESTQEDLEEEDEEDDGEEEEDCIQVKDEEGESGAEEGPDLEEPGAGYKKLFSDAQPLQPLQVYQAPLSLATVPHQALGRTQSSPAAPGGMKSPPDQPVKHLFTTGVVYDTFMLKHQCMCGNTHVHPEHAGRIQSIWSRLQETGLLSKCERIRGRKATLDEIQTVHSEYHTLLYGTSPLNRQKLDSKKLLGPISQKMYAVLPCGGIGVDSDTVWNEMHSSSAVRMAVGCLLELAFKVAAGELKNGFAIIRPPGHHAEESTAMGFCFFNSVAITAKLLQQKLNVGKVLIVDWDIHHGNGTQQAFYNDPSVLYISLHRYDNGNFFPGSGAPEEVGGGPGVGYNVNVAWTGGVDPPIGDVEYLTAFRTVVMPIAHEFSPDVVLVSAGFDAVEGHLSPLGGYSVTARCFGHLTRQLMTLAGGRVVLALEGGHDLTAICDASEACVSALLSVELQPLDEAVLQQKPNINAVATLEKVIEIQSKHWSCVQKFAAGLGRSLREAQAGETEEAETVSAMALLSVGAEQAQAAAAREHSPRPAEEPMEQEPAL

[3] = LMK235-treated FRICT-ION mice, week 10

Cc1cc(C)cc(C(=O)NOCCCCCC(=O)NO)c1 [LMK235, N-[[6-(Hydroxyamino)-6-oxohexyl]oxy]-3,5-dimethyl-benzamide]
mechanical threshold / von Frey hypersensitivity [1]: reverses von Frey hypersensitivity; also recorded: restored mechanical threshold to baseline | cold hypersensitivity (10° C. cold probe on snout) (FRICT-ION mice): significantly improved; also recorded: reduced | HDAC5 expression ([2]; LMK235-treated FRICT-ION mice): reduced | Hist1h2bc change ([2]; LMK235-treated FRICT-ION mice): 1.4 fold | Hist2h2aa1 change ([2]; LMK235-treated FRICT-ION mice): 1.6 fold | CCKBR RNA [2, 3]: normalized | GNAI2 RNA [2, 3]: partially restored | IFIT1 RNA [2, 3]: partially restored | NTS RNA [2, 3]: normalized | SCFN9 RNA [2, 3]: normalized | HDAC5 expression ([2]; LMK235-treated naïve controls): reduced | changes in HDAC10 gene ([2]; LMK235-treated naïve mice): not observed | changes in HDAC11 gene ([2]; LMK235-treated naïve mice): not observed | IC50 (HDAC 5): 4 nM
